Test results as given in patent US20230131899A1, “INHIBITORS OF MICROBIALLY INDUCED AMYLOID” (Axial Therapeutics, Inc., priority 2020, published 2023).
Where two headings read alike, the source gives them in different places.

How the values were obtained:
[1] = system: CsgA gene expression (csgBAC promoter-GFP reporter) in E. coli UTI89; test: In vitro live cell fluorescent reporter assay of CsgA transcription (Reporter Assay); type: cell-based; settings: Escherichia coli
Summary of the method: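 Chromosomal single-copy csgBAC promoter–GFP reporter in E. coli UTI89, started at OD600 0.003 in YESCA broth with compound (0.14–100 μM, 1% DMSO), 20 h at 27 °C. GFP (ex 485/em 525 nm) background-subtracted and normalized to vehicle; IC50 and X[50] from curve fits. OD600 tracked growth effects.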

E. coli CsgA = biological target: T1, E. coli CsgA (Escherichia coli, UniProt P28307); test: In vitro ThioflavinT assay of CsgA aggregation (CsgA ThT Assay); type: biochemical; settings: for remaining activity at 25 µM: compound 25 μM; for remaining activity at 100 µM: compound 100 μM
T1 construct: made in house; host or cells: E. coli NEB 3016 slyD::kan, pET11d
Summary of the method: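 Purified C-terminal His-tagged CsgA, monomerised by desalting and 30-kDa filtration, at 2-20 μM with 20-40 μM ThT in 50 mM potassium phosphate pH 7.3, 1% DMSO, compounds 3.125-200 uM; room temperature, fluorescence (ex 438/em 495 nm) read every 15 min. Background-subtracted signal expressed as percent inhibition versus vehicle at 6-6.5 or 8-9 h, or as percent control AUC.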

[2] = read-out: Reporter Assay Abs IC50 (μM), median Abs IC50 in the CsgA reporter assay, N/A = maximum expression reduction is <50% of control
[3] = read-out: Reporter Assay Abs IC50, activity range, class symbol
[4] = read-out: CsgA ThT Assay (2 μM CsgA) % Control Bmax 25 μM, activity range, class symbol, CsgA 2 μM, white plates
[5] = read-out: CsgA ThT Assay (2 μM CsgA) % Control Bmax 25 μM, mean Bmax as percentage of DMSO control, CsgA 2 μM, white plates
[6] = read-out: CsgA ThT Assay (2 μM CsgA) % Control Bmax 100 μM, activity range, class symbol, CsgA 2 μM, white plates
[7] = read-out: CsgA ThT Assay (2 μM CsgA) % Control Bmax 100 μM, mean Bmax as percentage of DMSO control, CsgA 2 μM, white plates
[8] = read-out: Reporter Assay Abs IC50 (activity range), median Abs IC50 in the CsgA reporter assay, class symbol
[9] = read-out: CsgA ThT Assay (10 μM CsgA) % Control AUC at 1005 minutes, 25 μM (activity range), CsgA 10 μM, black plates, 1005 minutes, class symbol
[10] = read-out: CsgA ThT Assay (10 μM CsgA) % Control AUC at 1005 minutes, 25 μM, mean AUC as % of DMSO control, CsgA 10 μM, black plates, 1005 minutes
[11] = read-out: CsgA ThT Assay (10 μM CsgA) % Control AUC at 1005 minutes, 100 μM (activity range), CsgA 10 μM, black plates, 1005 minutes, class symbol
[12] = read-out: CsgA ThT Assay (10 μM CsgA) % Control AUC at 1005 minutes, 100 μM, mean AUC as % of DMSO control, CsgA 10 μM, black plates, 1005 minutes

T1 sequence (P28307 23-151): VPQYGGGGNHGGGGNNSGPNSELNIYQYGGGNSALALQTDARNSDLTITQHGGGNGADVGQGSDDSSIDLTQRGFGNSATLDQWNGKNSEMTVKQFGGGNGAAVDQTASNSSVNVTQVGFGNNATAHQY

Compound | IC50 [1, 2] [µM] | IC50 [1, 3] [µM] | remaining activity at 25 µM (E. coli CsgA; [4]) [%] | remaining activity at 25 µM (E. coli CsgA; [5]) [%] | remaining activity at 100 µM (E. coli CsgA; [6]) [%] | remaining activity at 100 µM (E. coli CsgA; [7]) [%] | IC50 [1, 8] [µM] | remaining activity at 25 µM (E. coli CsgA; [9]) [%] | remaining activity at 25 µM (E. coli CsgA; [10]) [%] | remaining activity at 100 µM (E. coli CsgA; [11]) [%] | remaining activity at 100 µM (E. coli CsgA; [12]) [%]
O=C(O)C1CN(C2CCCCC2)S(=O)(=O)c2c(-c3cccc(C(F)(F)F)c3)c(Cc3cccc4ccccc34)c(NC3CCCC3)c(=O)n21 (stereo not drawn) [Compound 131, 2-cyclohexyl-7-(cyclopentylamino)-8-(naphthalen-1-ylmethyl)-6-oxo-9-(3-(trifluoromethyl)phenyl)-3,4-dihydro-2H,6H-pyrido[1,2-e][1,2,5]thiadiazine-4-carboxylic acid 1,1-dioxide] | 0.9 | < 1.3 | 31 to 60 | 53 | > 60 | 94 | – | – | – | – | –
O=C(O)C1CNS(=O)(=O)c2c(-c3cccc(C(F)(F)F)c3)c(C(F)(F)c3cccc4ccccc34)cc(=O)n21 (stereo not drawn) [Compound 137, 8-(difluoro(naphthalen-1-yl)methyl)-6-oxo-9-(3-(trifluoromethyl)phenyl)-3,4-dihydro-2H,6H-pyrido[1,2-e][1,2,5]thiadiazine-4-carboxylic acid 1,1-dioxide] | 2.2 | 1.3 to 4.5 | > 60 | 81 | 31 to 60 | 50 | – | – | – | – | –
O=C(O)C1CN(CCCCO)S(=O)(=O)c2c(-c3cccc(C(F)(F)F)c3)c(Cc3cccc4ccccc34)cc(=O)n21 (stereo not drawn) [Compound 085, 2-(4-hydroxybutyl)-8-(naphthalen-1-ylmethyl)-6-oxo-9-(3-(trifluoromethyl)phenyl)-3,4-dihydro-2H,6H-pyrido[1,2-e][1,2,5]thiadiazine-4-carboxylic acid 1,1-dioxide] | 15.3 | – | – | – | – | – | > 10 | 31 to 60 | 52 | 11 to 31 | 18
C/C=C\c1c(Cc2cccc3ccccc23)c(-c2cccc(C(F)(F)F)c2)c2n(c1=O)C(C(=O)O)CN(C)S2(=O)=O (stereo not drawn) [Compound 087, (Z)-2-methyl-8-(naphthalen-1-ylmethyl)-6-oxo-7-(prop-1-en-1-yl)-9-(3-(trifluoromethyl)phenyl)-3,4-dihydro-2H,6H-pyrido[1,2-e][1,2,5]thiadiazine-4-carboxylic acid 1,1-dioxide] | 6 | – | – | – | – | – | 4.6 to 10 | 11 to 31 | 30 | 11 to 31 | 15
CCCN1CC(C(=O)O)n2c(c(-c3cccc(C(F)(F)F)c3)c(Cc3cccc4ccccc34)c(N)c2=O)S1(=O)=O (stereo not drawn) [Compound 089, 7-amino-8-(naphthalen-1-ylmethyl)-6-oxo-2-propyl-9-(3-(trifluoromethyl)phenyl)-3,4-dihydro-2H,6H-pyrido[1,2-e][1,2,5]thiadiazine-4-carboxylic acid 1,1-dioxide] | 8 | – | – | – | – | – | 4.6 to 10 | 31 to 60 | 31 | 11 to 31 | 23
CN(C)Cc1c(Cc2cccc3ccccc23)c(-c2cccc(C(F)(F)F)c2)c2n(c1=O)C(C(=O)O)CS2(=O)=O (stereo not drawn) [Compound 083, 6-((dimethylamino)methyl)-7-(naphthalen-1-ylmethyl)-5-oxo-8-(3-(trifluoromethyl)phenyl)-2,3-dihydro-5H-thiazolo[3,2-a]pyridine-3-carboxylic acid 1,1-dioxide] | 14.6 | – | – | – | – | – | > 10 | > 60 | 102 | > 60 | 80
CCCN1CC(C(=O)O)n2c(c(-c3cccc(C(F)(F)F)c3)c(Cc3cccc4ccccc34)c(C3CC3)c2=O)S1(=O)=O (stereo not drawn) [Compound 132, 7-cyclopropyl-8-(naphthalen-1-ylmethyl)-6-oxo-2-propyl-9-(3-(trifluoromethyl)phenyl)-3,4-dihydro-2H,6H-pyrido[1,2-e][1,2,5]thiadiazine-4-carboxylic acid 1,1-dioxide] | 2.4 | 1.3 to 4.5 | > 60 | 76 | > 60 | 122 | – | – | – | – | –
